Consider four compounds from ChEMBL document CHEMBL1145498, “A systematic interaction map of validated kinase inhibitors with Ser/Thr kinases” (Proc Natl Acad Sci U S A, 2007).

The target of test [1] is Death-associated protein kinase 3 (Homo sapiens) (UniProt O43293).
Test [2] deals with Dual specificity protein kinase CLK3 (Homo sapiens) (UniProt P49761).
For test [3], the target named is Mitogen-activated protein kinase 3 (Homo sapiens, UniProt P27361).
Test [4] deals with cAMP-dependent protein kinase catalytic subunit alpha (Homo sapiens) (UniProt P17612).
Test [5] concerns the target Mitogen-activated protein kinase 6 (Homo sapiens) (UniProt Q16659).
In test [6] the target is STE20-like serine/threonine-protein kinase (Homo sapiens) (UniProt Q9H2G2).
Test [7] concerns the target Serine/threonine-protein kinase pim-3 (Homo sapiens) (UniProt Q86V86).
In test [8] the target is Mitogen-activated protein kinase 11 (Homo sapiens, UniProt Q15759).
Test [9] concerns the target Cyclin-dependent kinase-like 1 (Homo sapiens) (UniProt Q00532).
In test [10] the target is Serine/threonine-protein kinase 38 (Homo sapiens) (UniProt Q15208).
In test [11] the target is Serine/threonine-protein kinase PLK1 (Homo sapiens) (UniProt P53350).
Serine/threonine-protein kinase PLK1 (Homo sapiens), sequence (P53350 whole entry): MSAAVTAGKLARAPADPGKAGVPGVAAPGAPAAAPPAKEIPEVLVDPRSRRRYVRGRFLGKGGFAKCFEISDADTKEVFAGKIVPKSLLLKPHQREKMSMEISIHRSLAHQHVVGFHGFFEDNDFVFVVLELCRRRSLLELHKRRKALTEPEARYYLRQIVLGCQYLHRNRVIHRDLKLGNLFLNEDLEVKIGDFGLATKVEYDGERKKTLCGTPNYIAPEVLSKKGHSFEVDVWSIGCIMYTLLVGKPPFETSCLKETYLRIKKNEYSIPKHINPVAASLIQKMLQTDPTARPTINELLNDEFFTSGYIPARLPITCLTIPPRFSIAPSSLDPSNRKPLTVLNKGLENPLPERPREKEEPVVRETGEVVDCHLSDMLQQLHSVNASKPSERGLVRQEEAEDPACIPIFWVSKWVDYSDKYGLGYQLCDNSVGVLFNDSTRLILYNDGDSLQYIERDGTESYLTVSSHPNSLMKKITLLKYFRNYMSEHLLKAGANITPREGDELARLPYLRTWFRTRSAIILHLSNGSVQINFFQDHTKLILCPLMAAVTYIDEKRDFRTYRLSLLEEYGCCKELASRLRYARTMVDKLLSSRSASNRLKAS
Test [12] deals with Serine/threonine-protein kinase pim-1 (Homo sapiens) (UniProt P11309).
Test [13] concerns the target Calcium/calmodulin-dependent protein kinase type II subunit alpha (Homo sapiens) (UniProt Q9UQM7).
Test [14] addresses Cyclin-dependent kinase 16 (Homo sapiens) (UniProt Q00536).
For test [15], the target named is Casein kinase I isoform gamma-1 (Homo sapiens) (UniProt Q9HCP0).
In test [16] the target is Calcium/calmodulin-dependent protein kinase type II subunit gamma (Homo sapiens) (UniProt Q13555).
Calcium/calmodulin-dependent protein kinase type II subunit gamma (Homo sapiens), sequence (Q13555 whole entry): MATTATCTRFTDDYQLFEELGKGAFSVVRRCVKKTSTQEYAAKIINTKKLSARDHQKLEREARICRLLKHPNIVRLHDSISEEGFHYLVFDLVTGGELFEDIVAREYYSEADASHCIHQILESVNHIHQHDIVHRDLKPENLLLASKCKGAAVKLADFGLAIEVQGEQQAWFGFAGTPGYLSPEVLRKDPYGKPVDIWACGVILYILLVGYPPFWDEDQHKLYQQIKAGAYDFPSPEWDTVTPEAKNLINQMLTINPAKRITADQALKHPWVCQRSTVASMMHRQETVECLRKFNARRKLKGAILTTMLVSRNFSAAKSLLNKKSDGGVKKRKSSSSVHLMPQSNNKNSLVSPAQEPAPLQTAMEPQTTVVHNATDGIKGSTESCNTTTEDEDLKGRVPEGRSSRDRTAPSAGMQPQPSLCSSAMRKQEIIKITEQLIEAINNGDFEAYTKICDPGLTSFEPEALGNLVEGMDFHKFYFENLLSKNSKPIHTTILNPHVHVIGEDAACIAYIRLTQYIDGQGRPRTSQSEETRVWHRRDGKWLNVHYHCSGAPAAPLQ
Test [17] addresses T1, Calcium/calmodulin-dependent protein kinase type IV (Homo sapiens) (UniProt Q16566).
T1 sequence (whole entry): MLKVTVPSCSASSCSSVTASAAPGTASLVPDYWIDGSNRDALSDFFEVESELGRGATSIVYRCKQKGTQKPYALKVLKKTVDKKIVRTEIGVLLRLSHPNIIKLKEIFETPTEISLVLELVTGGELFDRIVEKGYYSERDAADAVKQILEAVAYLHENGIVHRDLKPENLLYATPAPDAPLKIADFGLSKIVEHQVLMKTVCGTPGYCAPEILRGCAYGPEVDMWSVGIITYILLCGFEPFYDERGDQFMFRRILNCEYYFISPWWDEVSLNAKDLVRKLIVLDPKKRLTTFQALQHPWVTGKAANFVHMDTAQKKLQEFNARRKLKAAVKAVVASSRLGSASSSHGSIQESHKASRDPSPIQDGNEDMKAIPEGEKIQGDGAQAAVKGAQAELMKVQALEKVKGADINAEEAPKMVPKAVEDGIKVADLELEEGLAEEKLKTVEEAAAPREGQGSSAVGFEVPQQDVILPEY

Test [18] deals with Serine/threonine-protein kinase PAK 6 (Homo sapiens) (UniProt Q9NQU5).
Serine/threonine-protein kinase PAK 6 (Homo sapiens), sequence (Q9NQU5 whole entry, looked up): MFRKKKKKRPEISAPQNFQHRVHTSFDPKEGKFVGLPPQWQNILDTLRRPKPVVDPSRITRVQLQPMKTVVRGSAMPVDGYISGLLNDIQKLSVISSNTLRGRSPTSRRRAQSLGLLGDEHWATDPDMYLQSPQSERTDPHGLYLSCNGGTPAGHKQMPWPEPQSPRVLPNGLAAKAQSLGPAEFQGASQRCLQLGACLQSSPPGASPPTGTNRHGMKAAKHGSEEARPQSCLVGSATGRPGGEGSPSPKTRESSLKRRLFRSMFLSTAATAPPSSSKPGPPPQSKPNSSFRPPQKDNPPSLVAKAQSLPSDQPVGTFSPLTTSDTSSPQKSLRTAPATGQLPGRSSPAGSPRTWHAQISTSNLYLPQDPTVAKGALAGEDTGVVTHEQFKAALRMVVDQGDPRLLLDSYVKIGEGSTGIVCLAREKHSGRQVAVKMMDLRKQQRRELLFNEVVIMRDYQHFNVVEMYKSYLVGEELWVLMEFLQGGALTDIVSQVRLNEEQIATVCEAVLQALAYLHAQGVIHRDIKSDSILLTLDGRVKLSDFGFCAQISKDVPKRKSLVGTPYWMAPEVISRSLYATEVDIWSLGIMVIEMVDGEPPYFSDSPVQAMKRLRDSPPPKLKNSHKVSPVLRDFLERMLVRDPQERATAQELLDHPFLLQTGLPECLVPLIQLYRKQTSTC
Test [19] has as its target Tyrosine-protein kinase JAK1 (Homo sapiens) (UniProt P23458).
Test [20] has as its target Serine/threonine-protein kinase VRK2 (Homo sapiens) (UniProt Q86Y07).
The target of test [21] is Serine/threonine-protein kinase pim-2 (Homo sapiens, UniProt Q9P1W9).
Serine/threonine-protein kinase pim-2, sequence (Q9P1W9 whole entry, looked up): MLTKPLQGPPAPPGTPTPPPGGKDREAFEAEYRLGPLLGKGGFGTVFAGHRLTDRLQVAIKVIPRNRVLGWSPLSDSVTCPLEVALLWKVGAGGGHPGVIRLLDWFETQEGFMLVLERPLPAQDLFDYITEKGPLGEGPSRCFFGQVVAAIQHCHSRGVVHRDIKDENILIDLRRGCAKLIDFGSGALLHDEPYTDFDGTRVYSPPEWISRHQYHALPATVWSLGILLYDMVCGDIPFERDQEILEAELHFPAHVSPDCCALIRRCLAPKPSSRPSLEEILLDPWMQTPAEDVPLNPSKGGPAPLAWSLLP

Calcium/calmodulin-dependent protein kinase type II subunit alpha (Homo sapiens), sequence (Q9UQM7 whole entry): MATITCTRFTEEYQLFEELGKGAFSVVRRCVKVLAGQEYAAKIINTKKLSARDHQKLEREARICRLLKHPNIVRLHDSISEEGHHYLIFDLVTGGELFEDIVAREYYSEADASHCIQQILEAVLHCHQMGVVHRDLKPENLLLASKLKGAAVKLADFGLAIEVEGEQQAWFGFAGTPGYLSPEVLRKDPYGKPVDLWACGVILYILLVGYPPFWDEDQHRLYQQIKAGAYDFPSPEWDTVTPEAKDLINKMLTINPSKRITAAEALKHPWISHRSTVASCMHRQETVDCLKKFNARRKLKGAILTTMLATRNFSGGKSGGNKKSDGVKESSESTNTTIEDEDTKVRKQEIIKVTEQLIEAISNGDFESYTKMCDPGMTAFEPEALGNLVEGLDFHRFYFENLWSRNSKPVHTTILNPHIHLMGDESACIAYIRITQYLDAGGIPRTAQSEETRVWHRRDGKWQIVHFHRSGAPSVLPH
Tyrosine-protein kinase JAK1 (Homo sapiens), sequence (P23458 whole entry): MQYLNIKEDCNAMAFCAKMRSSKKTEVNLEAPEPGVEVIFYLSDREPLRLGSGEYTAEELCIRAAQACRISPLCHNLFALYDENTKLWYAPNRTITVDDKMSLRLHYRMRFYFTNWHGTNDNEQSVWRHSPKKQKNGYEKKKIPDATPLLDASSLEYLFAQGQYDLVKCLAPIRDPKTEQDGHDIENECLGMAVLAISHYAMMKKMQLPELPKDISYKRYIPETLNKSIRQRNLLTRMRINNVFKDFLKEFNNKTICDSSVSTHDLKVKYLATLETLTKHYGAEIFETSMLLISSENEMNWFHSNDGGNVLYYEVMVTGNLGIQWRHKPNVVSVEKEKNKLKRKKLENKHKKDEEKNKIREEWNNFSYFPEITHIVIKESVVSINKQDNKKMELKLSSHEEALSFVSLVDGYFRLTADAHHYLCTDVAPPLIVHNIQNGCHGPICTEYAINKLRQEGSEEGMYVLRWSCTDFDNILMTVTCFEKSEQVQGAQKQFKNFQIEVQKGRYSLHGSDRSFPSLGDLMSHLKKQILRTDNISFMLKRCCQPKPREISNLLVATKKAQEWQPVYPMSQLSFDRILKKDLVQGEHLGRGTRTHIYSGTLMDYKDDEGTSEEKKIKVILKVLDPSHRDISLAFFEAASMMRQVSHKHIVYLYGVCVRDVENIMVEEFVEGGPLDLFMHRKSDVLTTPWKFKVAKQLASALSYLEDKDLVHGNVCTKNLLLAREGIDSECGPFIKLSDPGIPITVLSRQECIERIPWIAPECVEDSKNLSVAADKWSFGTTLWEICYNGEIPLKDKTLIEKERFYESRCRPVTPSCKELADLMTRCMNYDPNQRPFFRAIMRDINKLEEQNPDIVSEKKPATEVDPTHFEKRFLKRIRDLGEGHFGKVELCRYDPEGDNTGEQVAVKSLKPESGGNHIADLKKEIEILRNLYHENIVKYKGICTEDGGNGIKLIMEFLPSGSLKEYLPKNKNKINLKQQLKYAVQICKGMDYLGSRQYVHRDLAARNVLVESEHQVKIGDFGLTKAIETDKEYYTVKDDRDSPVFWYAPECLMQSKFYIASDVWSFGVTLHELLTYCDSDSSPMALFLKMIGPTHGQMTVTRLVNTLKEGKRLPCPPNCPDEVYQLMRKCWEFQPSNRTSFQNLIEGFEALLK
Mitogen-activated protein kinase 3, sequence (P27361 whole entry): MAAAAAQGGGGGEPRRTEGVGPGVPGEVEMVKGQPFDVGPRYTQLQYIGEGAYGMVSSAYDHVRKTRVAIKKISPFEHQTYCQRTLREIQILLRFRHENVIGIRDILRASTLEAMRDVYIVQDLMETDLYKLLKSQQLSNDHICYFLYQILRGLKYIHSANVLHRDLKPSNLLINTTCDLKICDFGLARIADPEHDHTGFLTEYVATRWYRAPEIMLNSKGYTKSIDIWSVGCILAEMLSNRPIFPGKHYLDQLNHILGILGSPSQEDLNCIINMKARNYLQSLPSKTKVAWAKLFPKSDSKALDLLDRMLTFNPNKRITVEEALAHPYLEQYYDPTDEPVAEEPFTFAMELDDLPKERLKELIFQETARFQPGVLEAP
Serine/threonine-protein kinase VRK2 (Homo sapiens), sequence (Q86Y07 whole entry): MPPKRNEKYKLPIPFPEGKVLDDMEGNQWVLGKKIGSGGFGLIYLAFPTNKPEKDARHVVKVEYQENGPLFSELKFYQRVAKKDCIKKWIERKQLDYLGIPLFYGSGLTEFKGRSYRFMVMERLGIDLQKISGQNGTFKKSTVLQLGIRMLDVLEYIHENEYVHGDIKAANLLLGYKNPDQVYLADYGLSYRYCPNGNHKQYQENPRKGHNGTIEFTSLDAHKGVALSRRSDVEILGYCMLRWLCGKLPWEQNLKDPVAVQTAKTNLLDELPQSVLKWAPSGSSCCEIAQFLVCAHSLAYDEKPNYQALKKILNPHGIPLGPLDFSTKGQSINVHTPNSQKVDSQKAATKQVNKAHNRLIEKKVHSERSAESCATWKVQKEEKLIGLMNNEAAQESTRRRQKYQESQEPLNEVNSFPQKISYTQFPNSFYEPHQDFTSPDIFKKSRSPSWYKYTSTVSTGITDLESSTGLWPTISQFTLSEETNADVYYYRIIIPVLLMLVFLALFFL

A word on the ΔTm: it is the shift of the melting midpoint relative to a reference. On to `COC1=C2C[C@@H](C)C[C@H](OC)[C@H](O)[C@@H](C)/C=C(\C)[C@H](OC(N)=O)[C@@H](OC)/C=C\C=C(/C)C(=O)NC(=CC1=O)C2=O`, for which the ΔTm in [1] is -0.6 °C; in test [2], -0.1 °C; in test [3] it was 0.1 °C; in test [4], 1.1 °C; in [5] it was 0.1 °C; in test [6], 1.7 °C. Further, the ΔTm in [7] is 0.5 °C; in test [8] it was -0.2 °C; in [9], -0.5 °C; in test [10], 0.2 °C; in test [11] it was 0.1 °C; in test [12] it was -0.2 °C. In addition, the ΔTm in [13] was -0.1 °C; in [14], -0.4 °C; in test [15], 0.5 °C; in test [16] it was 0.1 °C; in [17], 0 °C; in test [18] it was 0.3 °C. Also, the figures for the ΔTm in test [19], in [20] and in test [21] were -0.5 °C, 0.2 °C and -0.1 °C, respectively.

With `Cc1cc2ncc(-c3ccccc3)nc2cc1C`, the ΔTm in [1] is -0.1 °C; in [2], 0 °C; in [3], -0.6 °C; in test [4], 1.1 °C; in test [5], 1 °C; in [6], 0.4 °C. In addition, the ΔTm is 0.5 °C in [7]; -0.3 °C in test [8]; -0.3 °C in test [9]; 0.5 °C in [10]; 0.7 °C in [11]; 0.2 °C in test [12]. Moreover, the ΔTm in [13] is 1 °C; in [14], 0.3 °C; in [15], 0.7 °C; in test [16] it was 0.4 °C; in test [17], 0.4 °C; in [18], 0 °C. Also, the ΔTm worked out at 1.3 °C in [19], 0.4 °C in [20] and 0.4 °C in [21].

With `CN(C)c1ccc(CC2C(=O)Nc3ccccc32)cc1` (centres undefined), the ΔTm in test [1] was -0.8 °C; in [2], 0.1 °C; in test [3], 0.4 °C; in test [4], 0.2 °C; in test [5], 0.1 °C; in test [6], 0.8 °C. The ΔTm in test [7] is 1.2 °C; in test [8], 0.3 °C; in [9] it was -0.3 °C; in test [10], 1.5 °C; in test [11], -0.2 °C; in [12] it was -0.2 °C. In addition, the ΔTm in test [13] is -0.3 °C; in test [14], -0.5 °C; in [15] it was 1.2 °C; in test [16], 0.2 °C; in test [17], 0.1 °C; in test [18] it was 0.1 °C. Besides, the figures for the ΔTm in test [19], in [20] and in test [21] were 5.5 °C, 0.6 °C and 0.4 °C, respectively.

Turning to `Nc1ncnc2c1c(I)cn2[C@@H]1O[C@H](CO)[C@@H](O)[C@H]1O`, the ΔTm is 2.9 °C in test [1]; 7.3 °C in [2]; 1.5 °C in [3]; 1.3 °C in test [4]; -0.1 °C in test [5]; 4.2 °C in [6]. Moreover, the ΔTm in test [7] was 1.5 °C; in test [8] it was -0.4 °C; in test [9], 0.2 °C; in [10] it was 1.7 °C; in test [11], 1 °C; in test [12], 1.1 °C. In addition, the ΔTm in [13] is 0.7 °C; in test [14], 0.1 °C; in test [15], 2.5 °C; in test [16] it was 0.6 °C; in test [17], 2.5 °C; in test [18], 1.1 °C. For the same compound, the ΔTm in test [19] was determined as 0.2 °C; in test [20], 0.1 °C; in test [21], 1 °C.
